Legend:
[1] = molecular target: T1, Cannabinoid receptor 2 (Homo sapiens, UniProt P34972); experiment: Agonist activity at human recombinant CB2 receptor expressed in CHO cell membranes assessed as inhibition of forskolin-induced cAMP accumulation; format: functional, cell-based
[2] = species on record: Homo sapiens; experiment: Selectivity ratio of Ki for human recombinant CB1 receptor to KI for human recombinant CB2 receptor
[3] = molecular target: Cannabinoid receptor 1 (Homo sapiens, UniProt P21554); experiment: Displacement of [3H]CP-55940 from human recombinant CB1 receptor expressed in CHO cell membranes incubated for 90 mins by scintillation counting
Sequence of Cannabinoid receptor 1 (Homo sapiens, UniProt P21554) (P21554 whole entry): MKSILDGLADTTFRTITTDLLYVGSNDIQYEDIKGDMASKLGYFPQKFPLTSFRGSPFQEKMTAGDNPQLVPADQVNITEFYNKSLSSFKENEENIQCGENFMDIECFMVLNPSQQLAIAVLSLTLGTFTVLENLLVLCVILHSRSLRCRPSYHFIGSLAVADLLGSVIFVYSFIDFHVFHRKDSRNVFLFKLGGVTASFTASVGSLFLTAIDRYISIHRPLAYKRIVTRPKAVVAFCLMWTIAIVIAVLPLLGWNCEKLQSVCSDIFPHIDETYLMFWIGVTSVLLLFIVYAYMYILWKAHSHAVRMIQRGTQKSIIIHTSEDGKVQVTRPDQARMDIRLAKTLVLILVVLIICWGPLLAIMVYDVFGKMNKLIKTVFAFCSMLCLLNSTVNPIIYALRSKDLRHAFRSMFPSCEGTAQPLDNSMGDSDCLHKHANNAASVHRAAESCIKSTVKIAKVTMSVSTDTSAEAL

[4] = molecular target: T1, Cannabinoid receptor 2; experiment: Displacement of [3H]CP-55940 from human recombinant CB2 receptor expressed in CHO cell membranes incubated for 60 mins by scintillation counting
[5] = molecular target: T2, Cannabinoid receptor 2 (Rattus norvegicus, UniProt Q9QZN9); experiment: Displacement of [3H]CP-55940 from CB2 receptor in Sprague-Dawley rat spleen by scintillation counting
T2 sequence (Q9QZN9 whole entry): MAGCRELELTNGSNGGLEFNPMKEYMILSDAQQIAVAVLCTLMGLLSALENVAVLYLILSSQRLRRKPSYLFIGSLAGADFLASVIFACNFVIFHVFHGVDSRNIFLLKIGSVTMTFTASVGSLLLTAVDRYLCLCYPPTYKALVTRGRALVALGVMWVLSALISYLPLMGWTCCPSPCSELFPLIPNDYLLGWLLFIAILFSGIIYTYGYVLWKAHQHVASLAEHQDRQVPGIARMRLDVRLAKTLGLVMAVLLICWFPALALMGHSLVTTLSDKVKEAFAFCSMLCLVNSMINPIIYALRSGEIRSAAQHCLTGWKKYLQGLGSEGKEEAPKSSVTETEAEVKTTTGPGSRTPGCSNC

[6] = molecular target: Cannabinoid receptor 1 (Rattus norvegicus, UniProt P20272); experiment: Displacement of [3H]CP-55940 from CB1 receptor in Sprague-Dawley rat brain by scintillation counting
Sequence of Cannabinoid receptor 1 (Rattus norvegicus, UniProt P20272) (P20272 whole entry): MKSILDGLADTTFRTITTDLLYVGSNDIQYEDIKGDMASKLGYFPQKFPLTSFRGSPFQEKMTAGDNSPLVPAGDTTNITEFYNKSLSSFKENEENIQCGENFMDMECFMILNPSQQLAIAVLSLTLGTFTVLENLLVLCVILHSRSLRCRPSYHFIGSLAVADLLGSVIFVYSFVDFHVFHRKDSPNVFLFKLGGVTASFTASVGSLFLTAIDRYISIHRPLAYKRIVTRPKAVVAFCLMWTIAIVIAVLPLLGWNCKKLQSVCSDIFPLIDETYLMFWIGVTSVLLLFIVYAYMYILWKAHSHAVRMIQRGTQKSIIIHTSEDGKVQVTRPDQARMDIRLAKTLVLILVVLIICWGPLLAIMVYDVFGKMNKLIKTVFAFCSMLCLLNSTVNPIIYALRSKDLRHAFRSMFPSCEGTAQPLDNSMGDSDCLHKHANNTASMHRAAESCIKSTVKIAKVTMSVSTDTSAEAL

T1 sequence (P34972 whole entry): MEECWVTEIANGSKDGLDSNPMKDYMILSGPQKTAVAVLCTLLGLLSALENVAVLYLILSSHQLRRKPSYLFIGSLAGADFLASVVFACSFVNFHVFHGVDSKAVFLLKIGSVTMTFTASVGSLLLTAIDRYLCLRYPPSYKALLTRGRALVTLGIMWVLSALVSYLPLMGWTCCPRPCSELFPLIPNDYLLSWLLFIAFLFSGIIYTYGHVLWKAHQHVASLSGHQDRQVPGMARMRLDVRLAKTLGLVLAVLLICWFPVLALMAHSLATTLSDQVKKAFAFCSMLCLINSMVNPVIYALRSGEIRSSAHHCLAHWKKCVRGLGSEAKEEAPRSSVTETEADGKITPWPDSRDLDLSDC

| SMILES | IC50 [1] [nM] | Ratio Ki [2] | Ki [3] [nM] | Ki [4] [nM] | Ki [5] [nM] | Ki [6] [nM] |
| --- | --- | --- | --- | --- | --- | --- |
| C[C@@H]1COc2cccc3c(=O)c(C(=O)NC4CCCCC4)cn1c23 | 90 | 119 | 2870 | 24 | 30 | 3560 |
| C[C@H]1COc2cccc3c(=O)c(C(=O)NC4CCCCC4)cn1c23 | 724 | 25 | 4650 | 188 | 250 | 5240 |
| C[C@@H]1COc2cccc3c(=O)c(C(=O)NC45CC6CC(CC(C6)C4)C5)cn1c23 | 153 | > 212 | > 10000 | 47 | 52 | > 10000 |
| C[C@H]1COc2cccc3c(=O)c(C(=O)NC45CC6CC(CC(C6)C4)C5)cn1c23 | 250 | > 128 | > 10000 | 78 | 86 | > 10000 |
| CC[C@@H]1COc2cccc3c(=O)c(C(=O)NC4CCCCCC4)cn1c23 | 17.2 | 25 | 105 | 4.12 | 6.03 | 126 |
| CC[C@H]1COc2cccc3c(=O)c(C(=O)NC4CCCCCC4)cn1c23 | 682 | 4.5 | 843 | 187 | 203 | 913 |
| CC[C@@H]1COc2cccc3c(=O)c(C(=O)NC45CC6CC(CC(C6)C4)C5)cn1c23 | 18.1 | 40 | 197 | 4.93 | 6.17 | 242 |
| CC[C@H]1COc2cccc3c(=O)c(C(=O)NC45CC6CC(CC(C6)C4)C5)cn1c23 | 413 | 7 | 578 | 88 | 97 | 653 |
| CC(C)[C@@H]1COc2cccc3c(=O)c(C(=O)NC45CC6CC(CC(C6)C4)C5)cn1c23 | 9.84 | 71 | 88 | 1.24 | 1.75 | 95 |
| CC(C)[C@H]1COc2cccc3c(=O)c(C(=O)NC45CC6CC(CC(C6)C4)C5)cn1c23 | 55 | 53 | 858 | 16.2 | 19.3 | 864 |
| CC(C)C[C@@H]1COc2cccc3c(=O)c(C(=O)NC45CC6CC(CC(C6)C4)C5)cn1c23 | 36 | > 1080 | > 10000 | 9.24 | 10.2 | > 10000 |
| O=C(NC12CC3CC(CC(C3)C1)C2)c1cn2c3c(cccc3c1=O)OC[C@H]2Cc1ccccc1 | 17.5 | 28 | 105 | 3.72 | 4.65 | 121 |
| CC1(C)COc2cccc3c(=O)c(C(=O)NC45CC6CC(CC(C6)C4)C5)cn1c23 | 242 | 4 | 221 | 56 | 68 | 276 |
| CCC1COc2c(N3CCCC3)ccc3c(=O)c(C(=O)NC45CC6CC(CC(C6)C4)C5)cn1c23 (racemic) | 29 | > 1230 | > 10000 | 8.12 | 10.5 | > 10000 |
| CCC1COc2c(N3CCN(C)CC3)ccc3c(=O)c(C(=O)NC45CC6CC(CC(C6)C4)C5)cn1c23 (racemic) | 196 | > 238 | > 10000 | 42 | 61 | > 10000 |
| CCC1COc2cccc3c(=O)c(C(=O)Nc4ccncc4)cn1c23 (racemic) | 683 | 8 | 1150 | 152 | 183 | 1380 |

| SMILES | IC50 [1] [nM] | Ratio Ki [2] | Ki [3] [nM] | Ki [4] [nM] | Ki [5] [nM] | Ki [6] [nM] |
| --- | --- | --- | --- | --- | --- | --- |
| CCC1COc2cccc3c(=O)c(C(=O)Nc4nccs4)cn1c23 (racemic) | 1130 | 5 | 1360 | 265 | 324 | 1620 |
| CCC1COc2cccc3c(=O)c(C(=O)N(C(C)C)C(C)C)cn1c23 (racemic) | 423 | > 118 | > 10000 | 85 | 104 | > 10000 |
| CCCC1COc2cccc3c(=O)c(C(=O)NC4CCCCC4)cn1c23 (racemic) | 1.53 | 32 | 10.2 | 0.32 | 1.84 | 13.4 |
| CCCC1COc2cccc3c(=O)c(C(=O)NC45CC6CC(CC(C6)C4)C5)cn1c23 (racemic) | 15.3 | 92 | 215 | 2.34 | 2.73 | 240 |
| CCCC1COc2cccc3c(=O)c(C(=O)NC45CC6CC(C)(CC(C)(C6)C4)C5)cn1c23 (racemic) | 20 | 55 | 200 | 3.62 | 10.7 | 476 |
| CCCC1COc2ccc(C)c3c(=O)c(C(=O)NC4CCCCC4)cn1c23 (racemic) | 122 | 20 | 756 | 38 | 43 | 874 |
| CCCC1COc2ccc(C)c3c(=O)c(C(=O)NC45CC6CC(CC(C6)C4)C5)cn1c23 (racemic) | 42 | 43 | 450 | 10.4 | 13.2 | 476 |
| O=C(NC1CCCCC1)c1cn2c3c(cccc3c1=O)OCC2C1CC1 (racemic) | 67 | 7 | 102 | 15.3 | 18.2 | 123 |
| O=C(NC1CCCCCC1)c1cn2c3c(cccc3c1=O)OCC2C1CC1 (racemic) | 12.4 | 29 | 91 | 3.12 | 3.52 | 101 |
| O=C(NC12CC3CC(CC(C3)C1)C2)c1cn2c3c(cccc3c1=O)OCC2C1CC1 (racemic) | 32 | 44 | 389 | 8.92 | 10.3 | 482 |
| CC(C)C1COc2cccc3c(=O)c(C(=O)NC45CC6CC(CC(C6)C4)C5)cn1c23 (racemic) | 12.4 | 86 | 323 | 3.74 | 4.22 | 366 |
| CCC1COc2c(F)ccc3c(=O)c(C(=O)NC45CC6CC(CC(C6)C4)C5)cn1c23 (racemic) | 27 | 53 | 389 | 7.34 | 9.51 | 452 |
| CCC1COc2c(F)c(F)cc3c(=O)c(C(=O)NC45CC6CC(CC(C6)C4)C5)cn1c23 (racemic) | 145 | 53 | 1750 | 33 | 37 | 1820 |
| CCC1COc2c(OC)ccc3c(=O)c(C(=O)NC45CC6CC(CC(C6)C4)C5)cn1c23 (racemic) | 24 | 77 | 521 | 6.78 | 9.12 | 589 |
| O=C(NC12CC3CC(CC(C3)C1)C2)c1cn2c3c(cccc3c1=O)OC(c1ccccc1)C2c1ccccc1 (racemic) |  |  | > 10000 | > 10000 | > 10000 | > 10000 |
| Cc1cc2c3c(c1)c(=O)c(C(=O)NC14CC5CC(CC(C5)C1)C4)cn3C(c1ccccc1)CO2 (racemic) | 472 |  |  |  |  |  |

Source: ChEMBL document CHEMBL2163236, “7-Oxo-[1,4]oxazino[2,3,4-ij]quinoline-6-carboxamides as selective CB(2) cannabinoid receptor ligands: structural investigations around a novel class of full agonists” (J Med Chem, 2012)
